Active and inactive are the calls of the source.
What was measured:
[1] = Counterscreen for activators of the function of SWI/SNF related, matrix associated, actin dependent regulator of chromatin, subfamily a, member 2 (SMARCA2, BRM): Luminescence-based cell-based high throughput dose response assay to identify non-selective compounds using the VP16 reporter assay.; type: functional
[2] = target: SWI/SNF-related matrix-associated actin-dependent regulator of chromatin subfamily A member 2 (Homo sapiens, UniProt P51531); assay: Luminescence-based cell-based high throughput dose response assay to identify activators of the function of SWI/SNF related, matrix associated, actin dependent regulator of chromatin, subfamily a, member 2 (SMARCA2, BRM).; type: functional
[3] = target: Luciferin 4-monooxygenase (Photinus pyralis, UniProt P08659); assay: firefly luciferase enzyme inhibitors, dose response, biochemical, luminescence (AID 1891)
[4] = Luminescence Cell-Based Dose Confirmation HTS to Identify Inhibitors of Platelet Dense Granule Release. [Related pubchem assays: 1663 (Primary HTS), 1678 (Summary of Project)]; type: functional
Protein RecA = target: T1, Protein RecA (Mycobacterium tuberculosis, UniProt P9WHJ3); assay: Fluorescence Cell-Free Homogeneous Dose Retest to Identify Inhibitors of RecA-Intein Splicing Activity. [Related pubchem assays (depositor defined):AID2097, AID2223, AID489010, AID492950]; type: functional
T1 sequence (P9WHJ3 whole entry): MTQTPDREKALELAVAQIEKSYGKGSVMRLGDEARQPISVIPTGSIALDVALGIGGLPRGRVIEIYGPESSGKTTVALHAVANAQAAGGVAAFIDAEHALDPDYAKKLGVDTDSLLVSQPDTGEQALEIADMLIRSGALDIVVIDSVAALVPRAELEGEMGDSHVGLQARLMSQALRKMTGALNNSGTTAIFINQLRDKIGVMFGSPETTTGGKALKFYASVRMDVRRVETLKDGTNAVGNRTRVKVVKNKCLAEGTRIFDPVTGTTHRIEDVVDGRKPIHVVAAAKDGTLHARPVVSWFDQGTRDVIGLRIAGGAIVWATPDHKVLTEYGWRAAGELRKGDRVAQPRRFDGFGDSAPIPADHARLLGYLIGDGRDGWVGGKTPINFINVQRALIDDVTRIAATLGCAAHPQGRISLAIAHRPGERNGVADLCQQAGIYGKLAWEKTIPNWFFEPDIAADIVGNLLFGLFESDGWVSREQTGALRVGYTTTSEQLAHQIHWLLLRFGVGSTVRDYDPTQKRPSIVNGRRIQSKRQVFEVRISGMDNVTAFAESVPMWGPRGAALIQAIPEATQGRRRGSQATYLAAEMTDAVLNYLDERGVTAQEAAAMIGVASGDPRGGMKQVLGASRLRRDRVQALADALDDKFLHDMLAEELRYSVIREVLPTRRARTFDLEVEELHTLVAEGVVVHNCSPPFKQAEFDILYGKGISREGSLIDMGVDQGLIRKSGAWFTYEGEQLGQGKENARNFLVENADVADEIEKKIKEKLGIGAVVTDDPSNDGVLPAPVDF

[5] = target: T2, Replicative DNA helicase DnaB (Mycobacterium tuberculosis, UniProt P9WMR3); assay: DnaB intein splicing inhibitors, dose response, biochemical, cell-free fluorescence (AID 449749); type: functional
T2 sequence (P9WMR3 whole entry): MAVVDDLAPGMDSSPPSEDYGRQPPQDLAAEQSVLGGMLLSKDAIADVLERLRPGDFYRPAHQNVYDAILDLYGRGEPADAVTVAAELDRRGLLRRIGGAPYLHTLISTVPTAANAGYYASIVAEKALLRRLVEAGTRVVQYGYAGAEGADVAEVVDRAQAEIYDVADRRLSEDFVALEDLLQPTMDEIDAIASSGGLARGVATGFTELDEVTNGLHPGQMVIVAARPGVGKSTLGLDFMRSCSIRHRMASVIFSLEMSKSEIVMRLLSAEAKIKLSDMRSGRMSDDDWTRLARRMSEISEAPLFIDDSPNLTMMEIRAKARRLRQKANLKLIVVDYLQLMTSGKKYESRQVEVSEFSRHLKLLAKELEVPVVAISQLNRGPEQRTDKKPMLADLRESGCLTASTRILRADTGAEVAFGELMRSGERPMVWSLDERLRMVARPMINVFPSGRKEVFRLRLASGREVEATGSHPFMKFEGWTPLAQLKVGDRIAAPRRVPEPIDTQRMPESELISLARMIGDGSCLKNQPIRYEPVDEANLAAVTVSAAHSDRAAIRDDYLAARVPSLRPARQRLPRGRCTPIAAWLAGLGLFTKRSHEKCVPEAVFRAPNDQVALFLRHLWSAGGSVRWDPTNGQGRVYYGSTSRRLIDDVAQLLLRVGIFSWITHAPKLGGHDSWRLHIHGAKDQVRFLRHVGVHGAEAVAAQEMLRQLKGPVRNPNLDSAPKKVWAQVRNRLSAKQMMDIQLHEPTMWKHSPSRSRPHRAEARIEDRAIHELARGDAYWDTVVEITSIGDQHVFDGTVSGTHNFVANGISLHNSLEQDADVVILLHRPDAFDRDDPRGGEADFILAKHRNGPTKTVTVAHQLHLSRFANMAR

[6] = target: T3, Lysine-specific demethylase 4C (Homo sapiens, UniProt Q9H3R0); assay: GASC-1 (JMJD2C) histone demethylase inhibitors, dose response, biochemical, DELFIA europium, cherry-picked samples (AID 488835); type: functional
T3 sequence (Q9H3R0 whole entry): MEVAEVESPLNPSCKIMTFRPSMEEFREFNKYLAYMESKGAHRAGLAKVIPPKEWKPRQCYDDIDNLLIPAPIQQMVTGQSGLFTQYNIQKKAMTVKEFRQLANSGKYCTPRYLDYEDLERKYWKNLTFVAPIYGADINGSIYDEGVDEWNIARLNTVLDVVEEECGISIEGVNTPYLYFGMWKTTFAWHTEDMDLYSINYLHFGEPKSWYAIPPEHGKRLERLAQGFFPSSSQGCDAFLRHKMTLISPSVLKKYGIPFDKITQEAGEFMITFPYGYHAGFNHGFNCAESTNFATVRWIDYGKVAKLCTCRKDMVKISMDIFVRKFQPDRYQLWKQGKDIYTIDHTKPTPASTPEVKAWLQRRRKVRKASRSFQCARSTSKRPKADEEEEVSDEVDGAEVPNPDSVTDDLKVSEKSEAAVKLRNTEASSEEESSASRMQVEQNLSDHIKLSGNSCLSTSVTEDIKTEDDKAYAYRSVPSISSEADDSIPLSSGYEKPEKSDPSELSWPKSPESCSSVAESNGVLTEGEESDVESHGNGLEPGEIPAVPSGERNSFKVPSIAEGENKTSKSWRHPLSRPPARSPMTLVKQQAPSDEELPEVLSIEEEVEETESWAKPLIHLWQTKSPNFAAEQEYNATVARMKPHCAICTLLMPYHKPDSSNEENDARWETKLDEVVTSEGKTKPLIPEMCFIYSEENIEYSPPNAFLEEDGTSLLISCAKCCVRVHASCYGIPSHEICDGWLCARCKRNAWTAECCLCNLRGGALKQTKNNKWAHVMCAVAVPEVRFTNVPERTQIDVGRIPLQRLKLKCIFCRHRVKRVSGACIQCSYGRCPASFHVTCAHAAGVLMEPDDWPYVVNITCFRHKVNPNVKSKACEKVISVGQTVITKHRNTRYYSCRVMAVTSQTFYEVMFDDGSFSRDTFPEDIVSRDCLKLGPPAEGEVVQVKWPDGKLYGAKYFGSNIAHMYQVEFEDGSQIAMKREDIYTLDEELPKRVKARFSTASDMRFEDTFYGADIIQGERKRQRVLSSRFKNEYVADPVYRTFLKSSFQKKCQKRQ

[7] = target: T4, Heat shock factor protein 1 (Mus musculus, UniProt P38532); assay: HSF1 potentiators in luciferase reporter cells, confirmation, cell-based, NIH3T3, luminescence, dose retest (AID 435004); type: functional;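 also: stress induced by proteasome inhibitor MG132 added 30 min after compound; luciferase reporter driven by HSF1 response element in NIH3T3 cells; actives raise luminescence as potentiators of the MG132 stress response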
T4 sequence (P38532 whole entry): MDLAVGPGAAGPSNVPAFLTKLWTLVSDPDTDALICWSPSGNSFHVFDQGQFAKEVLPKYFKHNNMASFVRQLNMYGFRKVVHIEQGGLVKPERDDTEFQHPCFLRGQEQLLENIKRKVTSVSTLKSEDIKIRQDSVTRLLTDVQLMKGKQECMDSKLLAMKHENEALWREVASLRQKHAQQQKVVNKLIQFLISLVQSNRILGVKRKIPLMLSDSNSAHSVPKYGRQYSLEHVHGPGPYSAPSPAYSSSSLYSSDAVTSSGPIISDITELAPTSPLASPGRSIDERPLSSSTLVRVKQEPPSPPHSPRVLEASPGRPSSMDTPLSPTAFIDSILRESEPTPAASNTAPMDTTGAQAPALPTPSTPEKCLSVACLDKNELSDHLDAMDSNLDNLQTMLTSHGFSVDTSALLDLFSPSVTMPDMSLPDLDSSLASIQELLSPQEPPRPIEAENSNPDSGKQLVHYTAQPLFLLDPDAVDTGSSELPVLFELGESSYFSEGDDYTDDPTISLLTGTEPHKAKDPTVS

Chain of SWI/SNF-related matrix-associated actin-dependent regulator of chromatin subfamily A member 2 (P51531 whole entry): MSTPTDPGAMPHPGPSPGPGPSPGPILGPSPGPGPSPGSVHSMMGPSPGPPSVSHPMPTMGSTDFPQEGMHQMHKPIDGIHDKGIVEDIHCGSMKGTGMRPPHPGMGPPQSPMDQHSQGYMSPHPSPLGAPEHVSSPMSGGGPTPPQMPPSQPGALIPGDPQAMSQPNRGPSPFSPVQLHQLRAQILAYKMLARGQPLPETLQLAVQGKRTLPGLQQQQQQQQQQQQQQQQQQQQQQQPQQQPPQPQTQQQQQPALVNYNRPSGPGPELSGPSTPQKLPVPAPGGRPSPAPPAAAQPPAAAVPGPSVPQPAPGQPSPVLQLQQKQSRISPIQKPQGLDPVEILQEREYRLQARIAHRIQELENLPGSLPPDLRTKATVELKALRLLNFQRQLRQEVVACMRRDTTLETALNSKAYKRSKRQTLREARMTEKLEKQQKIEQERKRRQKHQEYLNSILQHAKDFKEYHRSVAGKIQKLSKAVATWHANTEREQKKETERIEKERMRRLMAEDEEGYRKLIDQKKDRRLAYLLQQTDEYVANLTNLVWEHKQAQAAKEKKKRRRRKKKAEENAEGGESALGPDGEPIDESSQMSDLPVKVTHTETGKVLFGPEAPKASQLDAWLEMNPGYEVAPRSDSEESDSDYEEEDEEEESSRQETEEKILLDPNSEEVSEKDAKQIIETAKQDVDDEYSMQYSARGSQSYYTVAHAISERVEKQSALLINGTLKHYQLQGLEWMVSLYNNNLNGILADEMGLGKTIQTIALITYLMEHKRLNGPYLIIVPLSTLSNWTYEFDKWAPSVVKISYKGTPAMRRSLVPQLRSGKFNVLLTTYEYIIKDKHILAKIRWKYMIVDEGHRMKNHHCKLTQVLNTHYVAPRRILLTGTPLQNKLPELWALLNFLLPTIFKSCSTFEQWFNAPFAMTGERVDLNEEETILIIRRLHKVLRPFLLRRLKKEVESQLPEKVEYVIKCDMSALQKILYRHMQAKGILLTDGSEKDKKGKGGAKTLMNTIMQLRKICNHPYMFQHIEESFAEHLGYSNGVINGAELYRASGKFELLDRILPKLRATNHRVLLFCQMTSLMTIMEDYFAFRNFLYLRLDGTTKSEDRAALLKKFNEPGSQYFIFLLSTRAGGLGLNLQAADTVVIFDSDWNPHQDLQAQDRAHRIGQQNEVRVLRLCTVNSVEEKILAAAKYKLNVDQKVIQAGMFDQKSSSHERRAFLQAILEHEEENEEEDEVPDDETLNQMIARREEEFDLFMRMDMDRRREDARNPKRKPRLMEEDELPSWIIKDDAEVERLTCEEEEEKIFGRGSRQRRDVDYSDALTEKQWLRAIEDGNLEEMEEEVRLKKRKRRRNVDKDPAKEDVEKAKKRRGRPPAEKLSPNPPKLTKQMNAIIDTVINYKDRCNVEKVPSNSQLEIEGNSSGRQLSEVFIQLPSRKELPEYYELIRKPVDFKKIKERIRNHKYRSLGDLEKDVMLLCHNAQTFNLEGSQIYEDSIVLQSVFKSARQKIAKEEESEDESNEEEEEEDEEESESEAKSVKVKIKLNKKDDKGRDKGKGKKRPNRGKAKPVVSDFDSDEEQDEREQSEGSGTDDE
Chain of Luciferin 4-monooxygenase (P08659 whole entry): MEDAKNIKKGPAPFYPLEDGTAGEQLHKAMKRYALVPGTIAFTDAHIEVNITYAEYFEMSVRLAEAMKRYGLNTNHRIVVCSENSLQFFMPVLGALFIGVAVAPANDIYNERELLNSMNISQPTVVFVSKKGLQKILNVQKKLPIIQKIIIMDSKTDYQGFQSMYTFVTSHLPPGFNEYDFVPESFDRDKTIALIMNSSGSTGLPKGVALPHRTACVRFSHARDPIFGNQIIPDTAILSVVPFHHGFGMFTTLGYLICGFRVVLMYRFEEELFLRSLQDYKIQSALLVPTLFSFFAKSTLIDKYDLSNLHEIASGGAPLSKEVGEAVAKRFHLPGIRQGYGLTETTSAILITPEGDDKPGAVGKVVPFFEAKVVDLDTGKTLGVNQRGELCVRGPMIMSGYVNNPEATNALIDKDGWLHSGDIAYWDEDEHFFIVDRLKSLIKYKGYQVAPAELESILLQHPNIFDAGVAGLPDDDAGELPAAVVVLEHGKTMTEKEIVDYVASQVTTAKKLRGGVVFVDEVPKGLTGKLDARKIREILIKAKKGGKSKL

Row | Structure (SMILES) | EC50 [1] | EC50 [2] | EC50 [3] | EC50 [4] | EC50 (Protein RecA) | AC50 [5] | AC50 [6] | EC50 [7]
1 | COc1cccc(C(=O)COC(=O)c2cccs2)c1 | > 91.1 µM (inactive) | > 91.1 µM (inactive) |  |  |  |  |  | 
2 | Cc1nnc2c(N(C)S(=O)(=O)c3ccccc3)nc3ccccc3n12 | > 91.2 µM (inactive) | > 91.2 µM (inactive) | > 112 µM (not active) | > 112 µM (not active) |  |  |  | 
3 | Cc1cc(C)n2nc(CNS(=O)(=O)c3c(F)c(F)c(F)c(F)c3F)nc2n1 | > 91.2 µM (inactive) | > 91.2 µM (inactive) |  |  | 10.8 µM (active) | 38.5 µM (active) |  | 
4 | COc1ccccc1/C=C1/SC(=S)N(C(C)C(=O)NC2C=CS(=O)(=O)C2)C1=O (configuration not stated) |  |  |  |  |  |  | > 60 µM (inactive) | 57.9 µM (active)

From ChEMBL document CHEMBL1201862, “PubChem BioAssay data set” (2004)
